Results from patent US9265773B2, “Tetracyclic heterocycle compounds and methods of use thereof for the treatment of viral diseases” (priority 2011, dated 2016).
pIC50: −log10 of the molar value.

Assays:
HCV replicon genotype 1b = assay: microbe, parasite or virus in culture; type: cell-based; settings: genotype 1b replicon cells, incubated 96 hours, NS3/4A ELISA readout
HCV replicon genotype 1a = assay: microbe, parasite or virus in culture; type: cell-based; settings: genotype 1a replicon cells, incubated 96 hours, NS3/4A ELISA readout

| SMILES | pIC50 (HCV replicon genotype 1b; Hepatitis C virus, 96 h) | pIC50 (HCV replicon genotype 1a; Hepatitis C virus, 96 h) | pIC50 (HCV replicon genotype 1b) | pIC50 (HCV replicon genotype 1a) |
| --- | --- | --- | --- | --- |
| CNC(=O)c1c(-c2ccc(F)cc2)oc2cc(N(C)S(C)(=O)=O)c(-c3nc4c(cc3OC)OCn3c-4cc4c(F)cccc43)cc12 [Compound 36] | 8.15 | 8.77 | – | – |
| CNC(=O)c1c(-c2ccc(F)cc2)oc2cc(N(C)S(C)(=O)=O)c(-c3ccc4c(n3)-c3cc5c(F)cccc5n3C(C)O4)cc12 (stereo not drawn) [Compound 37] | 8.23 | 8.47 | – | – |
| CNC(=O)c1c(-c2ccc(F)cc2)oc2cc(N(C)S(C)(=O)=O)c(-c3ccc4c(n3)-c3cc5c(F)cccc5n3C(C)O4)cc12 (stereo not drawn) [Compound 38] | – | – | 8.24 | 8.49 |
| CNC(=O)c1c(-c2ccc(F)cc2)oc2cc(N(C)S(C)(=O)=O)c(-c3ncc4c(n3)-c3cc5ccccc5n3CCCO4)cc12 [Compound 39] | 8.74 | 8.62 | – | – |
| CNC(=O)c1c(-c2ccc(F)cc2)oc2cc(N(C)S(C)(=O)=O)c(-c3ncc4c(n3)-c3cc5c(F)cccc5n3CCCO4)cc12 [Compound 40] | 8.66 | 8.70 | – | – |
| CNC(=O)c1c(-c2ccc(F)cc2)oc2cc(N(C)S(C)(=O)=O)c(-c3ccc4c(c3)-c3cc5ccccc5n3CCO4)cc12 [Compound 42, 5-(6,7-dihydrobenzo[6,7][1,4]oxazepino[4,5-a]indol-2-yl)-2-(4-fluorophenyl)-N-methyl-6-(N-methylmethylsulfonamido)benzofuran-3-carboxamide] | 8.35 | 8.51 | – | – |
| CNC(=O)c1c(-c2ccc(F)cc2)oc2cc(N(C)S(C)(=O)=O)c(-c3ccc4c(c3)-c3cc5c(F)cccc5n3CO4)cc12 [Compound 43, 5-(11-fluoro-6H-benzo[5,6][1,3]oxazino[3,4-a]indol-2-yl)-2-(4-fluorophenyl)-N-methyl-6-(N-methylmethylsulfonamido)benzofuran-3-carboxamide] | 8.41 | 8.62 | – | – |
| CNC(=O)c1c(-c2ccc(F)cc2)oc2cc(N(C)S(C)(=O)=O)c(-c3ccc4c(n3)-c3cc5ncccc5n3CO4)cc12 [Compound 44] | 8.62 | 8.55 | – | – |
| CNC(=O)c1c(-c2ccc(F)cc2)oc2cc(N(C)S(C)(=O)=O)c(-c3ccc4c(n3)-c3cc5nc(OC)ccc5n3CO4)cc12 [Compound 45, 2-(4-fluorophenyl)-5-(10-methoxy-6H-pyrido[2,3-e]pyrido[2′,3′:4,5]pyrrolo[1,2-c][1,3]oxazin-2-yl)-N-methyl-6-(N-methylmethylsulfonamido)benzofuran-3-carboxamide] | 7.96 | 8.04 | – | – |
| CNC(=O)c1c(-c2ccc(F)cc2)oc2cc(N(C)S(C)(=O)=O)c(-c3ccc4c(n3)-c3cc5c(F)cncc5n3CO4)cc12 [Compound 46, 5-(11-fluoro-6H-pyrido[2,3-e]pyrido[4′,3′:4,5]pyrrolo[1,2-c][1,3]oxazin-2-yl)-2-(4-fluorophenyl)-N-methyl-6-(N-methylmethylsulfonamido)benzofuran-3-carboxamide] | 8.68 | 8.82 | – | – |
| CNC(=O)c1c(-c2ccc(F)cc2)oc2cc(N(C)S(C)(=O)=O)c(-c3ccc4c(n3)-c3cc5c(C#N)nccc5n3CO4)cc12 [Compound 47] | 8.74 | 8.92 | – | – |
| CNC(=O)c1c(-c2ccc(F)cc2)oc2cc(N(C)S(C)(=O)=O)c(-c3ccc4c(n3)-c3cc5cccnc5n3CO4)cc12 [Compound 48, 2-(4-fluorophenyl)-N-methyl-6-(N-methylmethylsulfonamido)-5-(6H-pyrido[2,3-e]pyrido[3′,2′:4,5]pyrrolo[1,2-c][1,3]oxazin-2-yl)benzofuran-3-carboxamide] | 8.59 | 8.66 | – | – |
| CNC(=O)c1c(-c2ccc(F)cc2)oc2cc(N(C)S(C)(=O)=O)c(-c3ccc4c(c3)-c3cc5cccnc5n3CO4)cc12 [Compound 49] | 8.77 | 9.22 | – | – |
| CNC(=O)c1c(-c2ccc(F)cc2)oc2cc(N(C)S(C)(=O)=O)c(-c3cc4c(cn3)OCn3c-4cc4cccnc43)cc12 [Compound 50] | 8.34 | 7.82 | – | – |
| CNC(=O)c1c(-c2ccc(F)cc2)oc2cc(N(C)S(C)(=O)=O)c(-c3ccc4c(n3)-c3cc5c(F)cccc5n3C(c3ccccc3)O4)cc12 (stereo not drawn) [Compound 51, 5-(11-fluoro-6-phenyl-6H-pyrido[2′,3′:5,6][1,3]oxazino[3,4-a]indol-2-yl)-2-(4-fluorophenyl)-N-methyl-6-(N-methylmethylsulfonamido)benzofuran-3-carboxamide] | 7.48 | 7.77 | – | – |
| CNC(=O)c1c(-c2ccc(F)cc2)oc2cc(N(C)S(C)(=O)=O)c(-c3ccc4c(n3)-c3[nH]c5ncccc5c3CO4)cc12 [Compound 52, 5-(6,11-dihydropyrido[2″,3″:5′,6′]pyrano[3′,4′:4,5]pyrrolo[2,3-b]pyridin-2-yl)-2-(4-fluorophenyl)-N-methyl-6-[methyl(methylsulfonyl)amino]-1-benzofuran-3-carboxamide] | 8.57 | 8.77 | – | – |
| CNC(=O)c1c(-c2ccc(F)cc2)oc2cc(N(C)S(C)(=O)=O)c(-c3ccc4oc(=O)n5c6ccccc6cc5c4c3)cc12 [Compound 53, 2-(4-fluorophenyl)-N-methyl-6-(N-methylmethylsulfonamido)-5-(6-oxo-6H-benzo[5,6][1,3]oxazino[3,4-a]indol-2-yl)benzofuran-3-carboxamide] | 8.10 | 8.10 | – | – |

| SMILES | pIC50 (HCV replicon genotype 1b; Hepatitis C virus, 96 h) | pIC50 (HCV replicon genotype 1a; Hepatitis C virus, 96 h) | pIC50 (HCV replicon genotype 1b) | pIC50 (HCV replicon genotype 1a) |
| --- | --- | --- | --- | --- |
| CNC(=O)c1c(-c2ccc(F)cc2)oc2cc(N(C)S(C)(=O)=O)c(-c3ccc4oc(=O)n5c6cccc(F)c6cc5c4n3)cc12 [Compound 54, 5-(11-fluoro-6-oxo-6H-pyrido[2′,3′:5,6][1,3]oxazino[3,4-a]indol-2-yl)-2-(4-fluorophenyl)-N-methyl-6-(N-methylmethylsulfonamido)benzofuran-3-carboxamide] | 7.41 | 7.16 | – | – |
| CNC(=O)c1c(-c2ccc(F)cc2)oc2cc(N(C)S(C)(=O)=O)c(-c3ccc4c(n3)-c3c(Cl)c5ccccc5n3CO4)cc12 [Compound 55, 5-(12-chloro-6H-pyrido[2′,3′:5,6][1,3]oxazino[3,4-a]indol-2-yl)-2-(4-fluorophenyl)-N-methyl-6-(N-methylmethylsulfonamido)benzofuran-3-carboxamide] | 7.31 | 7.24 | – | – |
| CNC(=O)c1c(-c2ccc(F)cc2)oc2cc(N(C)S(C)(=O)=O)c(-c3ccc4c(n3)-c3c(Cl)c5c(F)cccc5n3CO4)cc12 [Compound 56] | 7.92 | 7.89 | – | – |
| CNC(=O)c1c(-c2ccc(F)cc2)oc2cc(N(C)S(C)(=O)=O)c(-c3ccc4c(n3)-c3c(Cl)c5c(Cl)cccc5n3CO4)cc12 [Compound 57] | 7.89 | 7.96 | – | – |
| CNC(=O)c1c(-c2ccc(F)cc2)oc2cc(N(C)S(C)(=O)=O)c(-c3ccc4c(n3)-c3c(F)c5ccccc5n3CO4)cc12 [Compound 58, 5-(12-fluoro-6H-pyrido[2′,3′:5,6][1,3]oxazino[3,4-a]indol-2-yl)-2-(4-fluorophenyl)-N-methyl-6-(N-methylmethylsulfonamido)benzofuran-3-carboxamide] | 8.06 | 7.89 | – | – |
| CNC(=O)c1c(-c2ccc(F)cc2)oc2cc(N(C)S(C)(=O)=O)c(-c3ccc4c(n3)-c3c(F)c5c(F)cccc5n3CO4)cc12 [Compound 59] | 8.38 | 8.60 | – | – |
| CNC(=O)c1c(-c2ccc(F)cc2)oc2cc(N(C)S(C)(=O)=O)c(-c3ccc4c(n3)-c3c(C#N)c5ccccc5n3CO4)cc12 [Compound 60, 5-(12-cyano-6H-pyrido[2′,3′:5,6][1,3]oxazino[3,4-a]indol-2-yl)-2-(4-fluorophenyl)-N-methyl-6-(N-methylmethylsulfonamido)benzofuran-3-carboxamide] | 7.51 | 7.16 | – | – |
| CNC(=O)c1c(-c2ccc(F)cc2)oc2cc(N(C)S(C)(=O)=O)c(-c3ccc4c(c3)-c3[nH]c5ccccc5c3C(C)(C)O4)cc12 [Compound 61, 5-(6,6-dimethyl-6,11-dihydrochromeno[4,3-b]indol-2-yl)-2-(4-fluorophenyl)-N-methyl-6-(N-methylmethylsulfonamido)benzofuran-3-carboxamide] | 7.96 | 8.19 | – | – |
| CNC(=O)c1c(-c2ccc(F)cc2)oc2cc(N(C)S(C)(=O)=O)c(-c3ccc4c(c3)-c3[nH]c5ccccc5c3C(c3cccnc3)O4)cc12 (stereo not drawn) [Compound 62] | 8.47 | 7.92 | – | – |
| CNC(=O)c1c(-c2ccc(F)cc2)oc2cc(N(C)S(C)(=O)=O)c(-c3ccc4c(c3)-c3[nH]c5ccccc5c3C(c3ccccc3)O4)cc12 (stereo not drawn) [Compound 63, 2-(4-fluorophenyl)-N-methyl-6-(N-methylmethylsulfonamido)-5-(6-phenyl-6,11-dihydrochromeno[4,3-b]indol-2-yl)benzofuran-3-carboxamide] | 7.08 | 7.04 | – | – |
| CNC(=O)c1c(-c2ccc(F)cc2)oc2cc(N(C)S(C)(=O)=O)c(-c3ccc4c(c3)-c3[nH]c5ccccc5c3C(C(C)(C)C)O4)cc12 (stereo not drawn) [Compound 64] | 7.36 | 7.15 | – | – |
| CNC(=O)c1c(-c2ccc(F)cc2)oc2cc(N(C)S(C)(=O)=O)c(-c3ccc4c(c3)-c3[nH]c5ccccc5c3C3(CCCC3)O4)cc12 [Compound 65] | 7.72 | 7.96 | – | – |
| CNC(=O)c1c(-c2ccc(F)cc2)oc2cc(N(C)S(C)(=O)=O)c(-c3ccc4c(n3)-c3[nH]c5cccc(F)c5c3C(c3cccs3)O4)cc12 (stereo not drawn) [Compound 66, 5-(7-fluoro-6-(thiophen-2-yl)-6,11-dihydropyrido[2′,3′:5,6]pyrano[4,3-b]indol-2-yl)-2-(4-fluorophenyl)-N-methyl-6-(N-methylmethylsulfonamido)benzofuran-3-carboxamide] | 7.23 | 7.31 | – | – |
| CNC(=O)c1c(-c2ccc(F)cc2)oc2cc(N(C)S(C)(=O)=O)c(-c3ccc4c(n3)-c3[nH]c5cccc(F)c5c3C(c3nccs3)O4)cc12 (stereo not drawn) [Compound 67] | 8.00 | 8.04 | – | – |
| CNC(=O)c1c(-c2ccc(F)cc2)oc2cc(N(C)S(C)(=O)=O)c(-c3ccc4c(n3)-c3cc5c(CN)cccc5n3CO4)cc12 [Compound 68] | 7.72 | 7.22 | – | – |
| CNC(=O)c1c(-c2ccc(F)cc2)oc2cc(N(C)S(C)(=O)=O)c(-c3ccc4c(n3)-c3cc5cccc(CN)c5n3CO4)cc12 [Compound 69] | 7.35 | 7.24 | – | – |
